Values quoted from earlier work, collected in patent publication US8759371B2, “Heterocyclic compounds and their uses” (Amgen Inc., priority 2010, dated 2014).

Key:
[1] = test system: systemic lupus erythematosis model; details: in vivo
[2] = test system: rheumatoid arthritis model; details: in vivo
[3] = test system: passive cutaneous anaphylaxis (PCA); details: absence of functional delta (IC 87114 and p110δ D910A mice)
[4] = test system: protein kinases
[5] = test system: ovalbumin-induced airway inflammation
[6] = target: T1, p110δ (Homo sapiens, UniProt O00329)
T1 sequence (O00329 1-1044): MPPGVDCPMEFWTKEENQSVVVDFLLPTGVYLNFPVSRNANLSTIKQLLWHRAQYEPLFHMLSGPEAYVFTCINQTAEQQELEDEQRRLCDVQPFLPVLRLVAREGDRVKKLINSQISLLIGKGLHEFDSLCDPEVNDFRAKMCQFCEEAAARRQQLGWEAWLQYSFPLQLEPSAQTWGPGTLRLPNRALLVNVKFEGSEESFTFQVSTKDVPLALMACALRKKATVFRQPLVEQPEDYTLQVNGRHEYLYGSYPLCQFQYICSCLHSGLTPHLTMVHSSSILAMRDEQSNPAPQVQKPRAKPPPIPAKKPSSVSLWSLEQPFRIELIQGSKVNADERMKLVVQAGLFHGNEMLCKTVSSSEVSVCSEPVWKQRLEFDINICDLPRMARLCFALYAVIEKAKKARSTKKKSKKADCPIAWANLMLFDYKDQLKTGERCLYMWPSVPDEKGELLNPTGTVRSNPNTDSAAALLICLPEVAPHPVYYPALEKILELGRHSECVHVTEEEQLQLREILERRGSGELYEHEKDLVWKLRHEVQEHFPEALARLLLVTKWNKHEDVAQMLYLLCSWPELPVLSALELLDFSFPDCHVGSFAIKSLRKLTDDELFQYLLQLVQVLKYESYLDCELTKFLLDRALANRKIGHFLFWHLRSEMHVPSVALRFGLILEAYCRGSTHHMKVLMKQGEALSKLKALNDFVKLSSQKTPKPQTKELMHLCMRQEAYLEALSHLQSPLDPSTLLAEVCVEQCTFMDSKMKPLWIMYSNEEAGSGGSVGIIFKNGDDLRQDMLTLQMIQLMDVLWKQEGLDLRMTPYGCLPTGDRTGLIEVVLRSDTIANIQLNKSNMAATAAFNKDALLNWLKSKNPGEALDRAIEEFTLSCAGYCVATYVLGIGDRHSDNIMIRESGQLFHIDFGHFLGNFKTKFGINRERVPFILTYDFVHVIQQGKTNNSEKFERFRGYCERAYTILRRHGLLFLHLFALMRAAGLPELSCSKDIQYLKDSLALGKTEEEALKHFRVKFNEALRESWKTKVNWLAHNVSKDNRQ

Compound	onset of disease in model of systemic lupus erythematosis [1]	efficacy in mouse model of rheumatoid arthritis [2]	passive cutaneous anaphylaxis (PCA) [3]	activity against any protein kinases tested [4]	inflammation and disease in murine model of asthma [5]	inhibits p110δ [6]
O=C1NC(=O)/C(=C\c2ccc3nccnc3c2)S1 [AS 605240]	delay onset of disease	efficacious				
Cc1ccccc1-n1c(Cn2cnc3c(N)ncnc32)nc2cccc(C)c2c1=O [IC87114]			significantly reduced	no activity	significantly ameliorate inflammation and disease	high nanomolar range (triple digit)
